Assay [1] has as its target T1, large-conductance Ca2+-activated K+ (BKCa) channel (Homo sapiens, UniProt Q12791). As to the kind of experiment: single-channel inside-out patch clamp. It is filed as cell-based. (In general: In patch-clamp work, channel activity is measured electrically.)
The target in assay [2] is T1, large-conductance Ca2+-activated K+ (BKCa) channel. Nature of the assay: whole-cell patch clamp. It is filed as cell-based.

This is an account of results in PMC3687672 (British Journal of Pharmacology, 2013).

T1 sequence (Q12791 whole entry): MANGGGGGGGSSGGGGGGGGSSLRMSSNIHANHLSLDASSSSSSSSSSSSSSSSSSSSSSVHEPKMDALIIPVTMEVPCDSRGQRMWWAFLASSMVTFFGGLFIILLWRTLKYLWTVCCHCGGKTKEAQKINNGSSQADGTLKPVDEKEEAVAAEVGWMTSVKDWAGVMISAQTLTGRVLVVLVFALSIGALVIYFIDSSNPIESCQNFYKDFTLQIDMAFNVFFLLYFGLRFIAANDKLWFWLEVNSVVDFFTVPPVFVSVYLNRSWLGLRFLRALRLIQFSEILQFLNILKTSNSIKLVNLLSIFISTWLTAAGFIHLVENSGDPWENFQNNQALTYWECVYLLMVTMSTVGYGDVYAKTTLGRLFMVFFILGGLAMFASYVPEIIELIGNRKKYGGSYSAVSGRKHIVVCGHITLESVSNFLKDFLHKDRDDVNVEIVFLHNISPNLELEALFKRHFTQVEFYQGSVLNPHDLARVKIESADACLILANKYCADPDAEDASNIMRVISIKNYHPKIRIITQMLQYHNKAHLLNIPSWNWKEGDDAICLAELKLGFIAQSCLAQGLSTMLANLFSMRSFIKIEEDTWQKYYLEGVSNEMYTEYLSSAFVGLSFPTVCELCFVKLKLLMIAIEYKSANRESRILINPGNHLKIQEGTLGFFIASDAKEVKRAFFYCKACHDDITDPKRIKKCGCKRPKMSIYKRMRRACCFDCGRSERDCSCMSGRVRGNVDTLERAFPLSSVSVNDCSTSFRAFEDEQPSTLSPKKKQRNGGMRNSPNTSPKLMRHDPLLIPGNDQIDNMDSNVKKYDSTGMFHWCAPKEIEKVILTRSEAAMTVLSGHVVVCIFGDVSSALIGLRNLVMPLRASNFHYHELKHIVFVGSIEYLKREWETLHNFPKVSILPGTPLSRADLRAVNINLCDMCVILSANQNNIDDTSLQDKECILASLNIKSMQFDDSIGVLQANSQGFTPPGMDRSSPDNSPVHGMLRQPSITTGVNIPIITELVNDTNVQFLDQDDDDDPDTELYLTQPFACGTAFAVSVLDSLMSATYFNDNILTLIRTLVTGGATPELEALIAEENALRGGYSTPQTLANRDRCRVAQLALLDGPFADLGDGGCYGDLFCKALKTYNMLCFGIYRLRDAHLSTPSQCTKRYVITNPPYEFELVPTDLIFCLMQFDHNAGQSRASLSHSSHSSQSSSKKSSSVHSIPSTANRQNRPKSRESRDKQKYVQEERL

Take `CCCCC/C=C\C/C=C\C/C=C\C/C=C\CCCC(=O)NCC(=O)O` [NAGly]: the “single-channel inside-out patch clamp; whole-cell patch clamp with GDPbetaS” value in assay [1] was found to be 3 µM.

`CC(C)(O)[C@H]1O[C@H]2CC[C@@]3(C)[C@@](O)(CC[C@H]4Cc5c([nH]c6ccccc56)[C@@]43C)C2=CC1=O` [paxilline] had a whole-cell patch clamp in assay [2] of 1 µM.
